Measurements as given in US20140163023A1, “DIHYDROPYRROLO PYRIMIDINE DERIVATIVES AS MTOR INHIBITORS” (Cellzome Limited, priority 2011, published 2014).

Tests used:
mTOR = molecular target: T1, mTOR (Homo sapiens, UniProt P42345); assay: mTOR kinobeads assay (competition binding in cell lysate, dot blot detection); settings: 1:1 mix of Jurkat and Ramos cell lysates, read-out: Inhibition values (IC50 in μM) as determined in the kinobeads assay, mTor
T1 construct: endogenous in cells; host or cells: Jurkat (ATCC TIB-152, clone E6-1) and Ramos (ATCC CRL-1596), 1:1 lysate mix
Protocol: Determination of the Effect of the Compounds According to the Invention on mTOR
(§1) The compounds of the present invention as described were tested in the mTOR kinobeads assay as described below. Briefly, test compounds (at various concentrations) and the affinity matrix (1:1 mixture of beads with immobilized phenylthiazole ligand 1 and beads with immobilized phenylmorpholin-chromen ligand; WO 2009/098021) were added to cell lysate aliquots and allowed to bind to the proteins in the lysate sample. After the incubation time the beads with captured proteins were separated from the lysate. Bound proteins were then eluted and the presence of mTOR, PI3Kα, PI3Kβ, PI3Kγ, PI3Kδ and DNA-dependent protein kinase (DNA-PK) was detected and quantified using a specific antibody in a dot blot procedure and the Odyssey infrared detection system. Dose response curves for individual kinases were generated and IC50 values calculated. Kinobeads assays for PI3 kinases (WO-A 2008/015013) and for kinase selectivity profiling (WO 2009/098021) have been previously described.
(§2) Washing of Affinity Matrix
(§3) The affinity matrix was washed two times with 15 ml of 1×DP buffer containing 0.2% NP40 (IGEPAL® CA-630, Sigma, #13021) and then resupended in 5.5 ml of 1×DP buffer containing 0.2% NP40 (10% beads slurry).
(§4) 5×DP buffer: 250 mM Tris-HCl pH 7.4, 25% Glycerol, 7.5 mM MgCl2, 750 mM NaCl, 5 mM Na3VO4, filter the 5×-lysis buffer through 0.22 μm filter and store in aliquots at −80° C. The 5×DP buffer is diluted to 1×DP buffer containing 1 mM DTT and 25 mM NaF.
(§5) Preparation of Test Compounds
(§6) Stock solutions of test compounds were prepared in DMSO. In a 96 well plate 30 μl solution of diluted test compounds at 5 mM in DMSO were prepared. Starting with this solution a 1:3 dilution series (9 steps) was prepared. For control experiments (no test compound) a buffer containing 2% DMSO was used. Compound Pi-103 (Calbiochem catalogue number 528100) served as a positive control.
(§7) Cell Culture and Preparation of Cell Lysates
(§8) Jurkat cells (ATCC catalogue number TIB-152 Jurkat, clone E6-1) and Ramos cells (ATCC number CRL-1596) were grown in 1 litre Spinner flasks (Integra Biosciences, #182101) in suspension in RPMI 1640 medium (Invitrogen, #21875-034) supplemented with 10% Fetal Bovine Serum (Invitrogen) at a density between 0.15×10^6 and 1.2×10^6 cells/ml. Cells were harvested by centrifugation, washed once with 1×PBS buffer (Invitrogen, #14190-094) and cell pellets were frozen in liquid nitrogen and subsequently stored at −80° C.
(§9) Cells were homogenized in a Potter S homogenizer in lysis buffer: 50 mM Tris-HCl, 0.8% NP40, 5% glycerol, 150 mM NaCl, 1.5 mM MgCl2, 25 mM NaF, 1 mM sodium vanadate, 1 mM DTT, pH 7.5. One complete EDTA-free tablet (protease inhibitor cocktail, Roche Diagnostics, 1873580) per 25 ml buffer was added. The material was dounced 10 times using a mechanized POTTER S, transferred to 50 ml falcon tubes, incubated for 30 minutes on ice and spun down for 10 min at 20,000 g at 4° C. (10,000 rpm in Sorvall SLA600, precooled). The supernatant was transferred to an ultracentrifuge (UZ)-polycarbonate tube (Beckmann, 355654) and spun for 1 hour at 100.000 g at 4° C. (33.500 rpm in Ti50.2, precooled). The supernatant was transferred again to a fresh 50 ml falcon tube, the protein concentration was determined by a Bradford assay (BioRad) and samples containing 50 mg of protein per aliquot were prepared. The samples were immediately used for experiments or frozen in liquid nitrogen and stored frozen at −80° C.
(§10) Cell lysate (approximately 50 mg protein per plate) was thawed in a water bath at room temperature and then kept on ice. To the thawed cell lysate 1×DP 0.8% NP40 buffer containing protease inhibitors (1 tablet for 25 ml buffer; EDTA-free protease inhibitor cocktail; Roche Diagnostics 1873580) was added in order to reach a final protein concentration of 5 mg/ml total protein. For the kinobeads experiment a 1:1 mix of Jurkat and Ramos cell lysates was used. […]

PI3Kα = molecular target: T2, PI3Kα (Homo sapiens, UniProt P42336); assay: kinobeads assay, PI3Kα; assay type: binding; settings: 1:1 mix of Jurkat and Ramos cell lysates, read-out: Inhibition values (IC50 in μM) as determined in the kinobeads assay, PI3Kα
T2 construct: endogenous in cells; host or cells: Jurkat (ATCC TIB-152, clone E6-1) and Ramos (ATCC CRL-1596), 1:1 lysate mix
Protocol: as §1, §2, §3, §4, §5, §6, §7, §8, §9
as §10, with “used. The diluted cell lysate was stored on ice.” for “used.”

PI3Kβ = molecular target: T3, PI3Kβ (Homo sapiens, UniProt P42338); assay: kinobeads assay, PI3Kβ; assay type: binding; settings: 1:1 mix of Jurkat and Ramos cell lysates, read-out: Inhibition values (IC50 in μM) as determined in the kinobeads assay, PI3Kβ
T3 construct: endogenous in cells; host or cells: Jurkat (ATCC TIB-152, clone E6-1) and Ramos (ATCC CRL-1596), 1:1 lysate mix
Protocol: as §1, §2, §3, §4, §5, §6, §7, §8, §9
as §10, with “used. The diluted cell lysate was stored on ice.” for “used.”

PI3Kδ = molecular target: T4, PI3Kδ (Homo sapiens, UniProt O00329); assay: kinobeads assay, PI3Kδ; assay type: binding; settings: 1:1 mix of Jurkat and Ramos cell lysates, read-out: Inhibition values (IC50 in μM) as determined in the kinobeads assay, PI3Kδ
T4 construct: endogenous in cells; host or cells: Jurkat (ATCC TIB-152, clone E6-1) and Ramos (ATCC CRL-1596), 1:1 lysate mix
Protocol: as §1, §2, §3, §4, §5, §6, §7, §8, §9
as §10, with “used. The diluted cell lysate was stored on ice.” for “used.”

PI3Kγ = molecular target: T5, PI3Kγ (Homo sapiens, UniProt P48736); assay: kinobeads assay, PI3Kγ; assay type: binding; settings: 1:1 mix of Jurkat and Ramos cell lysates, read-out: Inhibition values (IC50 in μM) as determined in the kinobeads assay, PI3Kγ
T5 construct: endogenous in cells; host or cells: Jurkat (ATCC TIB-152, clone E6-1) and Ramos (ATCC CRL-1596), 1:1 lysate mix
Protocol: as §1, §2, §3, §4, §5, §6, §7, §8, §9
as §10, with “used. The diluted cell lysate was stored on ice.” for “used.”

[1] = molecular target: T6, DNA-dependent protein kinase (DNA-PK) (Homo sapiens, UniProt P78527); assay: kinobeads assay, DNA-PK; assay type: binding; settings: 1:1 mix of Jurkat and Ramos cell lysates, read-out: Inhibition values (IC50 in μM) as determined in the kinobeads assay, DNA-PK
T6 construct: endogenous in cells; host or cells: Jurkat (ATCC TIB-152, clone E6-1) and Ramos (ATCC CRL-1596), 1:1 lysate mix
Protocol: as §1, §2, §3, §4, §5, §6, §7, §8, §9
as §10, with “used. The diluted cell lysate was stored on ice.” for “used.”

T5 sequence (P48736 whole entry): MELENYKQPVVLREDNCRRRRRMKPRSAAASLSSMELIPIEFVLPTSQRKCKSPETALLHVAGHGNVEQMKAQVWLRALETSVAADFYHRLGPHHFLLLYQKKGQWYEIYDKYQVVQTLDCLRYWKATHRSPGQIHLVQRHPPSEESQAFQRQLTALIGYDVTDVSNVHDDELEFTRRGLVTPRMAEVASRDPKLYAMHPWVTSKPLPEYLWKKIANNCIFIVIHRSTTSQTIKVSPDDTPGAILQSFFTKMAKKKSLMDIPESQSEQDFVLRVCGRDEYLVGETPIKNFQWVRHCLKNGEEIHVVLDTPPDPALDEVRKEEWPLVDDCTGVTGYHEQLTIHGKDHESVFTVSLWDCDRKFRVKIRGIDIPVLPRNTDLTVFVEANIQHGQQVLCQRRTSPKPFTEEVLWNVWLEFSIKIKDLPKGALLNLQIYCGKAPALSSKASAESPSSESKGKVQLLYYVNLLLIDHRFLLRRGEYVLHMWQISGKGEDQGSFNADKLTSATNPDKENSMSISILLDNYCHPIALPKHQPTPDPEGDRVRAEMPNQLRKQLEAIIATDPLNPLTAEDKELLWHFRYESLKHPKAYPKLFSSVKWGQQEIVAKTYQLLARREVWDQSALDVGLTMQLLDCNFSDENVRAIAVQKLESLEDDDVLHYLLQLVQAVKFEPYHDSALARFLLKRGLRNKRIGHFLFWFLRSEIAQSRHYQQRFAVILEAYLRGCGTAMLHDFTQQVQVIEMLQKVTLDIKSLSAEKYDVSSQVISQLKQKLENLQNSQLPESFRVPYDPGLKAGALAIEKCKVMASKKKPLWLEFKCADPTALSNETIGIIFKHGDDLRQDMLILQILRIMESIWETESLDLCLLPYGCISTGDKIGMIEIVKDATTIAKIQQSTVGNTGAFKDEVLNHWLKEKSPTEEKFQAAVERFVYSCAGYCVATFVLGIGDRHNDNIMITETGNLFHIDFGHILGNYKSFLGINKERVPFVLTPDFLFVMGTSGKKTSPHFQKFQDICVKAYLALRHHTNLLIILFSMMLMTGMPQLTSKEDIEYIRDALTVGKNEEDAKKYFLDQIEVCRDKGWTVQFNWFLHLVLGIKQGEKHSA
T4 sequence (O00329 whole entry): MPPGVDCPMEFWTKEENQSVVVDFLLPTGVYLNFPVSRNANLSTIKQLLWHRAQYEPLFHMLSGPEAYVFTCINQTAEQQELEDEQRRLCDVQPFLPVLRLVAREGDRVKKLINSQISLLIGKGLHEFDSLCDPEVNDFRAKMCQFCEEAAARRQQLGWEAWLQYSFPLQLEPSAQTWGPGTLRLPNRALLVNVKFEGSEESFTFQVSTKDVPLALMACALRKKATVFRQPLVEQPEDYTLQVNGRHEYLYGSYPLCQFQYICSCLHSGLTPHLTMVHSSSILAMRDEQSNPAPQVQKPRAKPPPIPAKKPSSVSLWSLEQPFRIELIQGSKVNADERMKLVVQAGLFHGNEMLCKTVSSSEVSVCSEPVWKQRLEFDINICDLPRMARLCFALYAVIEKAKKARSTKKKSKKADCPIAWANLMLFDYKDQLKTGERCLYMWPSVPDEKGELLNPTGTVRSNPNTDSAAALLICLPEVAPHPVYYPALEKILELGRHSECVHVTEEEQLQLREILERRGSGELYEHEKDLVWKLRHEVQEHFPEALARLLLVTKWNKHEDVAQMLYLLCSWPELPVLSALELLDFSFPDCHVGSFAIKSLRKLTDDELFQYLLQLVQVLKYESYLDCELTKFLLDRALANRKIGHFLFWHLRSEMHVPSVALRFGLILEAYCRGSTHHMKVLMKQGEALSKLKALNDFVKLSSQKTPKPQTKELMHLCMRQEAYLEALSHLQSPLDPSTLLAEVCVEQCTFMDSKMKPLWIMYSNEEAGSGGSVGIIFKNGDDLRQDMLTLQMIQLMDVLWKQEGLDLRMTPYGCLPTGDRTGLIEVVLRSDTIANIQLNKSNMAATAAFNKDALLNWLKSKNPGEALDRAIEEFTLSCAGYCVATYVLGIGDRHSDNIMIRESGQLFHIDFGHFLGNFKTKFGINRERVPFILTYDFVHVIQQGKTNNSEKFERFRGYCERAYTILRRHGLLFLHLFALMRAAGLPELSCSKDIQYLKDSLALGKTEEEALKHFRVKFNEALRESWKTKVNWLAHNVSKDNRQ
T4 sequence (P27986 whole entry partner): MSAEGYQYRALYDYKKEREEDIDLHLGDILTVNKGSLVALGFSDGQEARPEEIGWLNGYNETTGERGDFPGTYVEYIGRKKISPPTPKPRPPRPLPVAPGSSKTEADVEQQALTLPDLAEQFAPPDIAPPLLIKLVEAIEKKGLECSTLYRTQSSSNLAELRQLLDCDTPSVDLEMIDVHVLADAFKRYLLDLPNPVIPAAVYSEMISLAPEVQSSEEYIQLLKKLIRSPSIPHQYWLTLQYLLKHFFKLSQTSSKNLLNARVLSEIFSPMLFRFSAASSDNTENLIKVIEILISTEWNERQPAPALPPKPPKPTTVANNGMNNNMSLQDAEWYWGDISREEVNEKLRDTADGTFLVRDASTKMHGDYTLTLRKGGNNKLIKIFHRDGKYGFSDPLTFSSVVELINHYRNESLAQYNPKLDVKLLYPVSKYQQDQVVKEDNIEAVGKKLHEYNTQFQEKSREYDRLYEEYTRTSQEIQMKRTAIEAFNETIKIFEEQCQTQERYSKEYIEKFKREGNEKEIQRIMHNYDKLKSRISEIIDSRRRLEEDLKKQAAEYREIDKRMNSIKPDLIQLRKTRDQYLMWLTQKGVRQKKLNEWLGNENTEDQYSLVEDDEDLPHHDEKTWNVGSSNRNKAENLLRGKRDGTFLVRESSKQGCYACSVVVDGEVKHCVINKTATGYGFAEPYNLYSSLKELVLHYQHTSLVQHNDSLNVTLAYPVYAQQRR
T2 sequence (P42336 whole entry): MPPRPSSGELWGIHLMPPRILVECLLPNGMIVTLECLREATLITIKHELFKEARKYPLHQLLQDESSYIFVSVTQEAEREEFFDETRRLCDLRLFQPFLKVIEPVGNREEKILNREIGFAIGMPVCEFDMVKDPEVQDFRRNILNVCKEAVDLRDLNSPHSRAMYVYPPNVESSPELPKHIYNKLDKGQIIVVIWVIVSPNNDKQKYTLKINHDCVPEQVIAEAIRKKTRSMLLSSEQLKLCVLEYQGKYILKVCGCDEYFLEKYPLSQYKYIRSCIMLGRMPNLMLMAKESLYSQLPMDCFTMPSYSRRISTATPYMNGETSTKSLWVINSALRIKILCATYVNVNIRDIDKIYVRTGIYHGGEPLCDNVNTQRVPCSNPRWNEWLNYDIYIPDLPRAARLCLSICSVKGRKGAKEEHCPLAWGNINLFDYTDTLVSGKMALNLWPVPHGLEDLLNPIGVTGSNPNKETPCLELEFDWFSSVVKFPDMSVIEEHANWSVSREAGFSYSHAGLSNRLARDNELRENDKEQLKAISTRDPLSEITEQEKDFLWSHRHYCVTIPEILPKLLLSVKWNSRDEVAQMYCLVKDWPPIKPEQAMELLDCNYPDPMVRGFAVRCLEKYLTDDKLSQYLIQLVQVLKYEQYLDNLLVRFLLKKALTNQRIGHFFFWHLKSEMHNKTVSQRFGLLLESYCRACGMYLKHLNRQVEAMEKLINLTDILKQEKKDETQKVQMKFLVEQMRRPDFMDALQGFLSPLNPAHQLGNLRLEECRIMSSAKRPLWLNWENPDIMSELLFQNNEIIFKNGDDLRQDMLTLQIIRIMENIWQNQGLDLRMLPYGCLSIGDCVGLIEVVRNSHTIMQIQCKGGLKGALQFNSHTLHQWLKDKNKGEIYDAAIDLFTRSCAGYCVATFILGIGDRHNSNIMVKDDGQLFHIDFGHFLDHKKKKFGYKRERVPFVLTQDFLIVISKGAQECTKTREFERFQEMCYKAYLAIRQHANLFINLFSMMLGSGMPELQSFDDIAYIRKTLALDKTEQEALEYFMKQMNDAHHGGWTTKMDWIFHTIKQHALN
T2 sequence (P27986 whole entry partner): as the sequence (P27986 whole entry partner) above
T3 sequence (P42338 whole entry): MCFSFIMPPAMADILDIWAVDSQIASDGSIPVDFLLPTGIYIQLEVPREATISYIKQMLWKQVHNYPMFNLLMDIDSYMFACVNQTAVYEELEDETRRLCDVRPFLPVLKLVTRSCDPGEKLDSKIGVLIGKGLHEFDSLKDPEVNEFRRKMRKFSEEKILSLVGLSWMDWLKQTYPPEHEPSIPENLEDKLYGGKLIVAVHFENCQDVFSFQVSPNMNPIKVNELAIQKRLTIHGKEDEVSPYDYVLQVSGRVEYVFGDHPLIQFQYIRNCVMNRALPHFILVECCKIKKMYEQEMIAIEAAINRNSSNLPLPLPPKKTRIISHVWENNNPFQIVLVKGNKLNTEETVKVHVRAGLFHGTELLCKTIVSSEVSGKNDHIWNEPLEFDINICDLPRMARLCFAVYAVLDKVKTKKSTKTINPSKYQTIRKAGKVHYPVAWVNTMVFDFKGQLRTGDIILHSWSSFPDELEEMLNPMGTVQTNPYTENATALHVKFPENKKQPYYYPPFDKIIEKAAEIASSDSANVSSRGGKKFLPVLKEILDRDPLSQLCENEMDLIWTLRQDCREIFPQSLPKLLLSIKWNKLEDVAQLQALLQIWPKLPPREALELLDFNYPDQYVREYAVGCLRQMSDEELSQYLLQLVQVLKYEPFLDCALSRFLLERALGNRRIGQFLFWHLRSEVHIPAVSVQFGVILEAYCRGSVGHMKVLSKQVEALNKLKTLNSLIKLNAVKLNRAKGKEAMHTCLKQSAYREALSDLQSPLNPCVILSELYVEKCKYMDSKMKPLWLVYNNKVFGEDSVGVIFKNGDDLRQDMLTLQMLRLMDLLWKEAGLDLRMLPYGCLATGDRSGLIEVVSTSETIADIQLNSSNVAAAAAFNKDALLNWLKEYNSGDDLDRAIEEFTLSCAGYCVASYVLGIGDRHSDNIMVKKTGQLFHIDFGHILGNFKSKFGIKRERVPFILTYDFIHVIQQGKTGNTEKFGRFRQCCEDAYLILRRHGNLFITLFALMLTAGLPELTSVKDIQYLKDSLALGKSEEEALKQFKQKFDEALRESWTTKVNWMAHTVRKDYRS
T3 sequence (P27986 whole entry partner): as the sequence (P27986 whole entry partner) above

| Structure (SMILES) | IC50 (mTOR) [µM] | IC50 (PI3Kα) [µM] | IC50 (PI3Kβ) [µM] | IC50 (PI3Kδ) [µM] | IC50 (PI3Kγ) [µM] | IC50 [1] [µM] |
| --- | --- | --- | --- | --- | --- | --- |
| C[C@H]1COCCN1c1nc2c(c(-c3ccc(NC(=O)NC4CC4)cc3)n1)CN(S(C)(=O)=O)C2 [Example 15, (S)-1-cyclopropyl-3-(4-(2-(3-methylmorpholino)-6-(methylsulfonyl)-6,7-dihydro-5H-pyrrolo[3,4-d]pyrimidin-4-yl)phenyl)urea] | 0.1 to 1 | > 100 | > 100 | > 100 | > 100 | > 100 |
| C[C@H]1COCCN1C(=O)Nc1ccc(-c2nc(N3CCOC[C@@H]3C)nc3c2CNC3)cc1 [Example 16, (S)-3-methyl-N-(4-(2-((S)-3-methylmorpholino)-6,7-dihydro-5H-pyrrolo[3,4-d]pyrimidin-4-yl)phenyl)morpholine-4-carboxamide] | 1 to 10 | > 100 | > 100 | > 100 | > 100 | > 100 |
| CCNC(=O)N1Cc2nc(N3CCOC[C@@H]3C)nc(-c3ccc(NC(=O)NC4CC4)cc3)c2C1 [Example 17, (S)-4-(4-(3-cyclopropylureido)phenyl)-N-ethyl-2-(3-methylmorpholino)-5H-pyrrolo[3,4-d]pyrimidine-6(7H)-carboxamide] | 1 to 10 | 10 to 100 | > 100 | > 100 | > 100 | > 100 |
| O=C(Nc1ccc(-c2nc(N3CC4CCC(C3)O4)nc3c2CNC3)cc1)NC1CC1 [Example 18, 1-(4-(2-(8-oxa-3-azabicyclo[3.2.1]octan-3-yl)-6,7-dihydro-5H-pyrrolo[3,4-d]pyrimidin-4-yl)phenyl)-3-cyclopropylurea] | 0.1 to 1 | > 100 | > 100 | > 100 | > 100 | 10 to 100 |
| C[C@H]1COCCN1c1nc2c(c(-c3ccc(NC(=O)NCCO)cc3)n1)CNC2 [Example 19, (S)-1-(2-hydroxyethyl)-3-(4-(2-(3-methylmorpholino)-6,7-dihydro-5H-pyrrolo[3,4-d]pyrimidin-4-yl)phenyl)urea] | ≤ 0.1 | 1 to 10 | 10 to 100 | 10 to 100 | 1 to 10 | 10 to 100 |
| C[C@H]1COCCN1c1nc2c(c(-c3ccc(NC(=O)NC4CC4)cc3)n1)CN(C(=O)CN(C)C)C2 [Example 20, (S)-1-cyclopropyl-3-(4-(6-(2-(dimethylamino)acetyl)-2-(3-methylmorpholino)-6,7-dihydro-5H-pyrrolo[3,4-d]pyrimidin-4-yl)phenyl)urea] | 1 to 10 | > 100 | 10 to 100 | 10 to 100 | > 100 | > 100 |

Further lines, results first:

| IC50 (mTOR) [µM] | IC50 (PI3Kα) [µM] | IC50 (PI3Kβ) [µM] | IC50 (PI3Kδ) [µM] | IC50 (PI3Kγ) [µM] | IC50 [1] [µM] | Structure (SMILES) |
| --- | --- | --- | --- | --- | --- | --- |
| 1 to 10 | > 100 | 10 to 100 | 10 to 100 | > 100 | > 100 | C[C@H]1COCCN1c1nc2c(c(-c3ccc(NC(=O)NC4CC4)cc3)n1)CN(C(=O)CCN(C)C)C2 [Example 21, (S)-1-cyclopropyl-3-(4-(6-(3-(dimethylamino)propanoyl)-2-(3-methylmorpholino)-6,7-dihydro-5H-pyrrolo[3,4-d]pyrimidin-4-yl)phenyl)urea] |
| 0.1 to 1 | 10 to 100 | 10 to 100 | 1 to 10 | 10 to 100 | > 100 | C[C@H]1COCCN1c1nc2c(c(-c3ccc(NC(=O)NC4CC4)cc3)n1)CN(C(=O)CO)C2 [Example 22, (S)-1-cyclopropyl-3-(4-(6-(2-hydroxyacetyl)-2-(3-methylmorpholino)-6,7-dihydro-5H-pyrrolo[3,4-d]pyrimidin-4-yl)phenyl)urea] |
| 0.1 to 1 | 10 to 100 | 10 to 100 | 10 to 100 | > 100 | > 100 | C[C@H]1COCCN1c1nc2c(c(-c3ccc(NC(=O)NC4CC4)cc3)n1)CN(C(=O)CC#N)C2 [Example 23, (S)-1-(4-(6-(2-cyanoacetyl)-2-(3-methylmorpholino)-6,7-dihydro-5H-pyrrolo[3,4-d]pyrimidin-4-yl)phenyl)-3-cyclopropylurea] |
| 1 to 10 | 10 to 100 | 10 to 100 | 10 to 100 | 10 to 100 | > 100 | C[C@H]1COCCN1c1nc2c(c(-c3ccc(NC(=O)Nc4ccncc4)cc3)n1)CNC2 [Example 24, (S)-1-(4-(2-(3-methylmorpholino)-6,7-dihydro-5H-pyrrolo[3,4-d]pyrimidin-4-yl)phenyl)-3-(pyridin-4-yl)urea] |
| 0.1 to 1 | 1 to 10 | 1 to 10 | 10 to 100 | 1 to 10 | > 100 | C[C@H]1COCCN1c1nc2c(c(-c3ccc(NC(=O)Nc4cccc(O)n4)cc3)n1)CNC2 [Example 25, (S)-1-(6-hydroxypyridin-2-yl)-3-(4-(2-(3-methylmorpholino)-6,7-dihydro-5H-pyrrolo[3,4-d]pyrimidin-4-yl)phenyl)urea] |
| 0.1 to 1 | > 100 | 10 to 100 | 10 to 100 | > 100 | > 100 | C[C@@H]1COCCN1c1nc2c(c(-c3ccc(NC(=O)NC4CC4)cc3)n1)CNC2 [Example 26, (R)-1-cyclopropyl-3-(4-(2-(3-methylmorpholino)-6,7-dihydro-5H-pyrrolo[3,4-d]pyrimidin-4-yl)phenyl)urea] |
| 1 to 10 | 10 to 100 | 10 to 100 | 10 to 100 | > 100 | > 100 | COCC(=O)N1Cc2nc(N3CCOC[C@@H]3C)nc(-c3ccc(NC(=O)NC4CC4)cc3)c2C1 [Example 27, (S)-1-cyclopropyl-3-(4-(6-(2-methoxyacetyl)-2-(3-methylmorpholino)-6,7-dihydro-5H-pyrrolo[3,4-d]pyrimidin-4-yl)phenyl)urea] |
